Patent US11066396B2 (priority 2016, dated 2021)

Assays:
HDAC1 = HDAC1 (Homo sapiens (Human), UniProt Q13547); conditions: read-out: HDAC1 IC50
HDAC8 = HDAC8 (Homo sapiens (Human), UniProt Q9BY41); conditions: read-out: HDAC8 IC50
HDAC8, sequence (Q9BY41 whole entry): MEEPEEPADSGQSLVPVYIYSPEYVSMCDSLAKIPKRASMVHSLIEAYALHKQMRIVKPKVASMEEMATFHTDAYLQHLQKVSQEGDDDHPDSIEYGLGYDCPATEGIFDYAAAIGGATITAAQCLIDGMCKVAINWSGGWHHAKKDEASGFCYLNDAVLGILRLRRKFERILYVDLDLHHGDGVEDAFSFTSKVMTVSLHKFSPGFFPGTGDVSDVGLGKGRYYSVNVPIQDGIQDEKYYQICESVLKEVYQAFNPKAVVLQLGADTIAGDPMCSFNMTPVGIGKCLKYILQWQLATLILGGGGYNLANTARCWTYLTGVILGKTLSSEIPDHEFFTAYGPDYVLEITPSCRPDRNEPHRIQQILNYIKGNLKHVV

HDAC1, sequence (Q13547 whole entry): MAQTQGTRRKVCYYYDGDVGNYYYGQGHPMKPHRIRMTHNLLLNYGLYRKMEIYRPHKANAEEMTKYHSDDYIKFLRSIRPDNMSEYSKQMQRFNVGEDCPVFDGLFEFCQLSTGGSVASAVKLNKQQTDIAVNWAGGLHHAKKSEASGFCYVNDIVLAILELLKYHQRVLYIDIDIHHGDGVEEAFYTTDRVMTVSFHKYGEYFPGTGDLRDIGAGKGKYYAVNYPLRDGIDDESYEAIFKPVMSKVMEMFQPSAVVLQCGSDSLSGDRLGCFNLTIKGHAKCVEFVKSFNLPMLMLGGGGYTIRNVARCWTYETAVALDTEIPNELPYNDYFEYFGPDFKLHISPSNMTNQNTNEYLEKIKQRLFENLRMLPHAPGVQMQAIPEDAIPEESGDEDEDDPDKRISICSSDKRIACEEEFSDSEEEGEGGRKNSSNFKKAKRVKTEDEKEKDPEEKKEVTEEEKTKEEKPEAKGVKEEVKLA

SMILES	IC50 (HDAC1)	IC50 (HDAC8)
O=C1CC(NCc2ccc(-c3noc(C(F)(F)F)n3)cn2)CCN1 (racemic) [Example 437, 4-[({5-[5-(trifluoromethyl)-1,2,4-oxadiazol-3-yl]pyridin-2-yl}methyl)amino]piperidin-2-one]	5400 nM	5100 nM
CN1CCOC(CNCc2ccc(-c3noc(C(F)(F)F)n3)cn2)C1 (racemic) [Example 452, 1-(4-methylmorpholin-2-yl)-N-({5-[5-(trifluoromethyl)-1,2,4-oxadiazol-3-yl]pyridin-2-yl}methyl)methanamine]	2800 nM	2400 nM
O=C1CCC(c2ccccc2)N1c1ncc(-c2noc(C(F)(F)F)n2)cc1F (centres unmarked) [Example 5, 1-(3-Fluoro-5-(5-(trifluoromethyl)-1,2,4-oxadiazol-3-yl)pyridin-2-yl)-5-phenylpyrrolidin-2-one]	2300 nM	13000 nM
O=C1CC[C@@H](c2nc3ccccc3[nH]2)N1c1ccc(-c2noc(C(F)(F)F)n2)cc1 [Example 21, (S)-5-(1H-Benzo[d]imidazol-2-yl)-1-(4-(5-(trifluoromethyl)-1,2,4-oxadiazol-3-yl)phenyl)pyrrolidin-2-one]	110 nM	660 nM
O=C1CC[C@@H](c2nc3ccccc3o2)N1c1ccc(-c2noc(C(F)(F)F)n2)cc1F [Example 22, (S)-5-(Benzo[d]oxazol-2-yl)-1-(2-fluoro-4-(5-(trifluoromethyl)-1,2,4-oxadiazol-3-yl)phenyl)pyrrolidin-2-one]	32 nM	350 nM
O=C1CCC[C@@H](c2nc3ccccc3s2)N1c1ccc(-c2noc(C(F)(F)F)n2)cc1 [Example 25, (S)-6-(Benzo[d]thiazol-2-yl)-1-(4-(5-(trifluoromethyl)-1,2,4-oxadiazol-3-1)phenyl)piperidin-2-one]	220 nM	740 nM
FC(F)(F)c1nc(-c2ccc(N[C@@H]3CCCC[C@H]3c3ccccc3)nc2)no1 [Example 26, N-((1R,2S)-2-Phenylcyclohexyl)-5-(5-(trifluoromethyl)-1,2,4-oxadiazol-3-yl)pyridin-2-amine]	4600 nM	26000 nM
FC(F)(F)c1nc(-c2ccc(CN(c3ccccn3)c3ccccn3)cc2)no1 [Example 27, N-(Pyridin-2-yl)-N-(4-(5-(trifluoromethyl)-1,2,4-oxadiazol-3-yl)benzyl)pyridin-2-amine]	3700 nM	4800 nM
O=c1ccc2ccccc2n1Cc1ccc(-c2noc(C(F)(F)F)n2)cc1 [Example 28, 1-(4-(5-(Trifluoromethyl)-1,2,4-oxadiazol-3-yl)benzyl)quinolin-2(1H)-one]	760 nM	1600 nM
Cc1nc2cc(F)ccc2n1Cc1ccc(-c2noc(C(F)(F)F)n2)cc1F [Example 29, 3-(3-Fluoro-4-((5-fluoro-2-methyl-1H-benzo[d]imidazol-1-yl)methyl)phenyl)-5-(trifluoromethyl)-1,2,4-oxadiazole]	1600 nM	8200 nM
O=C(N1CCOCC1)N(Cc1ccc(-c2noc(C(F)(F)F)n2)cc1)c1cccc(C(F)(F)F)c1 [Example 32, N-(4-(5-(Trifluoromethyl)-1,2,4-oxadiazol-3-yl)benzyl)-N-(3-(trifluoromethyl)phenyl)morpholine-4-carboxamide]	440 nM	2300 nM
CN1CCN(c2ccc(-c3noc(C(F)(F)F)n3)cc2)C(c2ccccc2)C1 (centres unmarked) [Example 33, 3-(4-(4-Methyl-2-phenylpiperazin-1-yl)phenyl)-5-(trifluoromethyl)-1,2,4-oxadiazole]	5300 nM	3900 nM
O=C1COC[C@@H](c2nc(-c3ccccn3)no2)N1c1ccc(-c2noc(C(F)(F)F)n2)cc1 [Example 34, (S)-5-(3-(Pyridin-2-yl)-1,2,4-oxadiazol-5-yl)-4-(4-(5-(trifluoromethyl)-1,2,4-oxadiazol-3-yl)phenyl)morpholin-3-one]	64 nM	280 nM
O=C1C(C2CCOCC2)NC[C@@H](c2cc(F)cc(F)c2)N1c1ccc(-c2noc(C(F)(F)F)n2)cn1 (stereo partly drawn) [Example 38, (6R)-6-(3,5-difluorophenyl)-3-(tetrahydro-2H-pyran-4-yl)-1-(5-(5-(trifluoromethyl)-1,2,4-oxadiazol-3-yl)pyridin-2-yl)piperazin-2-one]	4300 nM	16000 nM
Cc1noc([C@@H]2COCC(=O)N2c2ccc(-c3noc(C(F)(F)F)n3)cc2)n1 [Example 47, (S)-5-(3-methyl-1,2,4-oxadiazol-5-yl)-4-(4-(5-(trifluoromethyl)-1,2,4-oxadiazol-3-yl)phenyl)morpholin-3-one]	1500 nM	3000 nM
CC(C)c1ncc(C(=O)N(Cc2ccc(-c3noc(C(F)(F)F)n3)cn2)c2cccc(F)c2)cn1 [Example 53, N-(3-fluorophenyl)-2-isopropyl-N-((5-(5-(trifluoromethyl)-1,2,4-oxadiazol-3-yl)pyridin-2-yl)methyl)pyrimidine-5-carboxamide]	170 nM	1800 nM

SMILES	IC50 (HDAC1)	IC50 (HDAC8)
Cc1nccnc1C(=O)N(Cc1ccc(-c2noc(C(F)(F)F)n2)cn1)c1cccc(F)c1 [Example 56, N-(3-fluorophenyl)-3-methyl-N-((5-(5-(trifluoromethyl)-1,2,4-oxadiazol-3-yl)pyridin-2-yl)methyl)pyrazine-2-carboxamide]	250 nM	3100 nM
Cc1cc(CC(=O)N(Cc2ccc(-c3noc(C(F)(F)F)n3)cn2)c2cccc(F)c2)on1 [Example 59, N-(3-fluorophenyl)-2-(3-methylisoxazol-5-yl)-N-((5-(5-(trifluoromethyl)-1,2,4-oxadiazol-3-yl)pyridin-2-yl)methyl)acetamide]	210 nM	1500 nM
Cc1nonc1CC(=O)N(Cc1ccc(-c2noc(C(F)(F)F)n2)cn1)c1cccc(F)c1 [Example 62, N-(3-fluorophenyl)-2-(4-methyl-1,2,5-oxadiazol-3-yl)-N-((5-(5-(trifluoromethyl)-1,2,4-oxadiazol-3-yl)pyridin-2-yl)methyl)acetamide]	480 nM	3500 nM
O=C(N(Cc1ccc(-c2noc(C(F)(F)F)n2)cn1)c1cccc(F)c1)C1(CN2CCOCC2)CC1 [Example 65, N-(3-fluorophenyl)-1-(morpholinomethyl)-N-((5-(5-(trifluoromethyl)-1,2,4-oxadiazol-3-yl)pyridin-2-yl)methyl)cyclopropane-1-carboxamide]	240 nM	3000 nM
CC(=O)N1CCN(CC(=O)N(Cc2ccc(-c3noc(C(F)(F)F)n3)cc2)c2cccc(C(F)(F)F)c2)CC1 [Example 69, 2-(4-acetylpiperazin-1-yl)-N-(4-(5-(trifluoromethyl)-1,2,4-oxadiazol-3-yl)benzyl)-N-(3-(trifluoromethyl)phenyl)acetamide]	1300 nM	2600 nM
O=C(Cn1ncccc1=O)N(Cc1ccc(-c2noc(C(F)(F)F)n2)cc1)c1cccc(C(F)(F)F)c1 [Example 70, 2-(6-oxopyridazin-1(6H)-yl)-N-(4-(5-(trifluoromethyl)-1,2,4-oxadiazol-3-yl)benzyl)-N-(3-(trifluoromethyl)phenyl)acetamide]	960 nM	2200 nM
O=C(c1cncnc1)N(Cc1ccc(-c2noc(C(F)(F)F)n2)cc1)c1cccc(C(F)(F)F)c1 [Example 71, N-(4-(5-(trifluoromethyl)-1,2,4-oxadiazol-3-yl)benzyl)-N-(3-(trifluoromethyl)phenyl)pyrimidine-5-carboxamide]	670 nM	2800 nM
O=C(CCCn1cncn1)N(Cc1ccc(-c2noc(C(F)(F)F)n2)cc1)c1cccc(C(F)(F)F)c1 [Example 72, 4-(1H-1,2,4-triazol-1-yl)-N-(4-(5-(trifluoromethyl)-1,2,4-oxadiazol-3-yl)benzyl)-N-(3-(trifluoromethyl)phenyl)butanamide]	1900 nM	2000 nM
Cc1nnc(CC(=O)N(Cc2ccc(-c3noc(C(F)(F)F)n3)cc2)c2cccc(C(F)(F)F)c2)n1C [Example 75, 2-(4,5-dimethyl-4H-1,2,4-triazol-3-yl)-N-(4-(5-(trifluoromethyl)-1,2,4-oxadiazol-3-yl)benzyl)-N-(3-(trifluoromethyl)phenyl)acetamide]	860 nM	2300 nM
O=C(Cn1ccnn1)N(Cc1ccc(-c2noc(C(F)(F)F)n2)cc1)c1cccc(C(F)(F)F)c1 [Example 76, 2-(1H-1,2,3-triazol-1-yl)-N-(4-(5-(trifluoromethyl)-1,2,4-oxadiazol-3-yl)benzyl)-N-(3-(trifluoromethyl)phenyl)acetamide]	1000 nM	2100 nM
Cc1nc(C)n(CC(=O)N(Cc2ccc(-c3noc(C(F)(F)F)n3)cc2)c2cccc(C(F)(F)F)c2)n1 [Example 77, 2-(3,5-dimethyl-1H-1,2,4-triazol-1-yl)-N-(4-(5-(trifluoromethyl)-1,2,4-oxadiazol-3-yl)benzyl)-N-(3-(trifluoromethyl)phenyl)acetamide]	1400 nM	3300 nM
CC(=O)NCCC(=O)N(Cc1ccc(-c2noc(C(F)(F)F)n2)cc1)c1cccc(C(F)(F)F)c1 [Example 78, 3-acetamido-N-(4-(5-(trifluoromethyl)-1,2,4-oxadiazol-3-yl)benzyl)-N-(3-(trifluoromethyl)phenyl)propanamide]	890 nM	2300 nM
O=C(CC1COC1)N(Cc1ccc(-c2noc(C(F)(F)F)n2)cc1)c1cccc(C(F)(F)F)c1 [Example 80, 2-(oxetan-3-yl)-N-(4-(5-(trifluoromethyl)-1,2,4-oxadiazol-3-yl)benzyl)-N-(3-(trifluoromethyl)phenyl)acetamide]	1600 nM	2800 nM
O=C(CN1CCS(=O)(=O)CC1)N(Cc1ccc(-c2noc(C(F)(F)F)n2)cc1)c1cccc(C(F)(F)F)c1 [Example 81, 2-(1,1-dioxidothiomorpholino)-N-(4-(5-(trifluoromethyl)-1,2,4-oxadiazol-3-yl)benzyl)-N-(3-(trifluoromethyl)phenyl)acetamide]	1300 nM	4900 nM
CN(C)CC(=O)N(Cc1ccc(-c2noc(C(F)(F)F)n2)cc1)c1cccc(C(F)(F)F)c1 [Example 83, 2-(dimethylamino)-N-(4-(5-(trifluoromethyl)-1,2,4-oxadiazol-3-yl)benzyl)-N-(3-(trifluoromethyl)phenyl)acetamide]	1200 nM	3500 nM
